Data on one compound can be found in patent publication US20110060037A1, “USE OF NPY Y5 RECEPTOR ANTAGONISTS FOR THE PREVENTION OF PSYCHO-STIMULANT AND OPIOID ABUSE” (priority 2008, published 2011).

Entries after “also recorded” stand apart in the source; their conditions may differ.

In one experiment the test system is C57Bl/6 mice. As to the kind of experiment: Cocaine-induced conditioned place preference (CPP). The class given is in vivo. The text has this:
The CPP apparatus consisted of eight parallel set-ups, each consisting of two separate compartments measuring 19×19×19 cm. The walls extended upwards with clear Plexiglas plates to a total height of 43 cm, having the function of preventing the mice from jumping out, and at the same time allowing light to enter. The two compartments differed in visual as well as tactile cues. In one compartment, the walls and floor were painted white, and the floor was smooth, whereas in the other compartment, the walls were black, and the floor provided texture by insertion of a grey Lego plate. During habituation, post-conditioning test, extinction, and reinstatement, the mice were free to move between the two compartments through a square hole (3.5×3.5 cm). During conditioning, this opening was closed by insertion of a wooden plate. The movements of the animals were measured with the video-tracking program EthoVision (Noldus, Netherlands).
The CPP procedure consisted of the following consecutive phases: Habituation (2 days), conditioning (8 days), post-conditioning test (1 day), extinction (3 days), reinstatement test (1 day). Habituation (days 1-2): Each day the mice were placed into the white compartment of the CPP boxes with the door open and allowed to explore the compartments for 20 minutes to become habituated to the CPP apparatus. On the second day (i.e., the pre-conditioning test), the time spent in each of the two compartments (black or white) was recorded. This determined the preferred compartment of each mouse. No injections were given during these sessions.
Conditioning (days 3-10): Before eight daily 30 minutes conditioning sessions the animals received i.p. injections of either drug or isotonic saline, and the door between the two compartments was closed. Drug groups received drug injections on drug-days and were placed 2-5 min. later in their non-preferred compartment. On non drug-days, these animals received vehicle injections and were subsequently placed in their preferred compartment. All control animals received injections with vehicle each day and were placed in alternating compartments (black/white) on alternating days. […]
Post-conditioning test (day 11): The test was conducted on the day after the last conditioning session. Mice were allowed free access to both compartments for 20 minutes during which the amount of time spent in each compartment was recorded as described above for the pre-conditioning test. […]
Extinction and reinstatement: During an extinction period of three days the animals were exposed to the apparatus as during the post-conditioning test for 20 minutes each day with open doors and without prior injection. […] Subsequently, the time spent in the previously drug-paired (non-preferred) compartment was recorded for 20 min. […]

The test system of a further experiment is NMRI mice. As to the kind of experiment: Cocaine-induced hyperactivity. The class given is in vivo. The source says:
The apparatus for measuring locomotor hyperactivity consisted of 16 activity Plexiglas boxes (37×21×17 cm). Eight dual photocells placed throughout the length of each box, detected movement of the animals. A plate was placed on top of the box in order to keep the mice from jumping out during the sessions. Sawdust was placed in a thin layer on the floor of the box. All activity boxes were connected to an interface (SG 502, Med. Associates Inc., East Fairfield, Vt., USA), measuring each beam-break. A computer and activity software (Ellegaard Systems, DK) were used to record the results from each activity box.
In all activity experiments an i.p. injection of either vehicle or drug was administered 3-7 minutes before testing. The animal was then placed in an activity box and the activity was measured for 30 minutes. […]
Conditioned place preference data were analysed using repeated measure one-way ANOVA between days within each group on all four groups of both experiments. […] Post-conditioning test and reinstatement presented as percent of its own saline group were analysed with a one-way ANOVA followed by post-hoc LSD t-tests. Total crossings were analysed with a one-way ANOVA followed by post-hoc LSD t-tests. Data presented as 5 minutes intervals was analysed using repeated measures ANOVA with treatment as between subjects factor followed by LSD post-hoc t-test. […]

On to `CC1(C)CC(=O)C(C2C3=C(CC(C)(C)CC3=O)Oc3ccccc32)C(=O)C1` [L-152,804, 5,5-Dimethyl-2-(2,3,4,9-tetrahydro-3,3-dimethyl-1oxo-1H-xanthen-9-yl)-1,3-cyclohexanedione], for which the “induction of cocaine place preference (post-conditioning vs. pre-conditioning test)” value in the experiment on C57Bl/6 mice (L-152,804 3, 10, 30 mg/kg p.o. two hours prior to cocaine 10 mg/kg i.p. conditioning, FIG. 5A) was “did not attenuate; also recorded: caused significant place preference similar to that observed without the Y5-antagonist”. Also, the “reinstatement of cocaine-induced place preference vs. own pre-conditioning test” value in the experiment on C57Bl/6 mice (L-152,804 3, 10, 30 mg/kg p.o., cocaine priming 5 mg/kg, FIG. 5A) is listed as “absent; also recorded: prevented significant reinstatement”. In addition, the “reinstatement as percent of the vehicle p.o./saline i.p. group” value in the experiment with C57Bl/6 mice (L-152,804 3, 10, 30 mg/kg p.o., cocaine priming 5 mg/kg, FIG. 5B) is given as “dose-dependently attenuated; also recorded: only the highest dose of L-152,804 (30 mg/kg) blocked reinstatement”. Besides, in the experiment with C57Bl/6 mice (L-152,804 3, 10, 30 mg/kg p.o., three extinction days, vehicle/cocaine group reached full extinction on day 3), the “extinction of cocaine place preference” value was “significantly faster; also recorded: full extinction already on the first extinction day”. In addition, the “cocaine-induced hyperactivity (locomotor activity, beam crossings)” value in the experiment on NMRI mice (L-152,804 10 mg/kg p.o. two hours prior to cocaine 10 mg/kg, 30 min observation and 5-min intervals, FIG. 7) is recorded as “appeared to be attenuated; also recorded: prevented a significant cocaine-induced increase in locomotor activity”. Moreover, in the experiment with NMRI mice (L-152,804 10 mg/kg p.o. vs vehicle), the “locomotor activity in saline i.p.-treated animals” value is listed as “No effect”.
